Laboratory results as given in PubChem BioAssay (NCI).
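Results reflect a 48-hour exposure of cells in 96-well plates to compound at five concentrations. The concentration for 50% growth inhibition is given as GI50. TGI: total growth inhibition.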

Columns and labels:
Assay in all cases: NCI tumour cell line growth inhibition, 48 h
[1] = test system: NCI/ADR-RES ovarian
[2] = test system: T-47D breast
[3] = test system: MDA-MB-231 breast
[4] = test system: MCF7 breast
[5] = test system: PC-3 prostate
[6] = test system: 786-0 renal

Compound | GI50 [1] [µM] | TGI [1] [µM] | GI50 [2] [µM] | TGI [2] [µM] | GI50 [3] [µM] | TGI [3] [µM] | GI50 [4] [µM] | TGI [4] [µM] | GI50 [5] [µM] | TGI [5] [µM] | GI50 [6] [µM] | TGI [6] [µM]
O=C(N/N=C\c1cc(Cl)ccc1O)N/N=C/c1cc(Cl)ccc1O | 2.48 | > 100 | 2.32 | > 100 | 4.3 | > 100 | 3.12 | > 100 | 2.96 | > 100 | > 100 | > 100
CN(C)c1ccc(/C=N/Nc2ccc(-c3nc4ccccc4[nH]3)cc2)cc1 | 10.7 | 32 | 8.95 | 40.9 | 13.4 | 42.1 | 8.44 | 35.6 | 7.27 | > 50 | 10.6 | 38.6
CC(=O)OCC1OC(O[C@@H]2C[C@H]3C(C)(C)[C@H](OC(C)=O)CC[C@]3(C)[C@H]3CC[C@@H]4[C@]5(CC[C@@]4(C)[C@@]32C)O[C@@H]([C@H](O)C(C)(C)O)C[C@@H]5C)C(O)C(O)C1O (some centres undefined) | 16.4 | 31.1 | 5.63 | 18.4 | 10.2 | 22.3 | 1.06 | 6.03 | 3.84 | 14.3 | 8.79 | 21.9
ClCc1ccc(Cn2cnc3ncnc(Cl)c32)cc1 | 1.81 | 4.68 | 1.29 | 2.86 | 1.76 | 3.35 | 1.35 | 2.94 | 1.58 | 2.93 | 1.68 | 3.05
COc1cc(C(=O)c2c(-c3ccccc3)oc3ccccc23)cc(OC)c1O | 0.876 | 20 | 2.14 | 31.8 | 4.24 | 22.5 | 0.399 | 16 | 3.47 | 15.7 | 4.15 | 17
COc1ccc2c3c([nH]c2c1)[C@H]1C[C@H]2[C@H](C[C@@H](O)[C@H](OC)[C@H]2C(=O)O)CN1CC3 | – | > 100 | – | > 100 | – | > 100 | – | > 100 | – | > 100 | – | > 100
CC(C)(C)c1ccc(C(O)(c2ccc(C(C)(C)C)cc2)c2ccc(C(C)(C)C)cc2)cc1 | – | > 100 | – | > 100 | – | > 100 | – | > 100 | – | > 100 | – | > 100
NC(=O)c1ccc(NC(=O)c2oc3ccccc3c2-c2cnn(-c3ccccc3)c2)cc1 | – | – | – | – | 4.65 | > 100 | > 100 | > 100 | – | – | 5.41 | > 85.2
CCNC1=CC(=O)c2ncccc2C1=O | 3.75 | 28.2 | 4.45 | 23.1 | 2.66 | 21.1 | 1.17 | 3.2 | 2.71 | 22.8 | 9.09 | 23.4
C[C@@H]1CC[C@H]2C(CN3CCN(CC4=C(C(F)(F)F)O[C@@H]5O[C@@]6(C)CC[C@H]7[C@H](C)CC[C@@H]4[C@@]57OO6)CC3)=C(C(F)(F)F)O[C@@H]3O[C@@]4(C)CC[C@@H]1[C@]32OO4 | > 100 | > 100 | 0.458 | > 100 | 7.85 | > 27.7 | 3.13 | > 100 | 0.351 | > 100 | 1.8 | > 37.3
C/C(=N\n1c(N)c(C#N)c(-c2ccc(Cl)cc2)c(C#N)c1=O)c1cccnc1 | > 100 | > 100 | > 100 | > 100 | > 100 | > 100 | > 100 | > 100 | > 100 | > 100 | > 100 | > 100
COCCOCCOCCOCCOc1ccc2c(c1)C(=O)c1nc3ncccc3c(=O)n1-2 | 2.09 | 6.41 | 3.03 | 9.04 | 2.93 | 52 | 0.799 | 2.2 | 1.67 | 16.5 | 2.17 | 9.46
CCn1cc(C2NC(=O)c3cc(F)ccc3N2)c2cccc(Cl)c21 (centres undefined) | 0.081 | 0.75 | 0.635 | > 100 | 0.503 | > 100 | 0.0913 | > 100 | 0.296 | > 100 | 0.618 | > 50.6
COc1ccccc1OCC(O)CO (centres undefined) | > 100 | > 100 | > 100 | > 100 | > 100 | > 100 | > 100 | > 100 | > 100 | > 100 | > 100 | > 100
Cn1cc(/C=C2\C(=O)Nc3cccnc32)c2ccccc21 | 20.4 | > 25 | > 17.1 | > 25 | 11.1 | > 25 | 8.04 | > 25 | 22.9 | > 25 | > 25 | > 25
O=C1CCC(c2ccccc2)(c2ccccc2)CC1 | – | > 100 | – | > 100 | – | > 100 | – | > 100 | – | > 100 | – | > 100
O=C(/C=C/c1cccs1)Nc1ncc(Cc2ccccc2F)s1 | 0.246 | > 100 | 0.404 | > 100 | 0.611 | > 100 | 0.318 | > 100 | 0.261 | > 100 | 0.59 | > 100
Nc1ccccc1C#Cc1ccccc1C#CCCCCO | 14.4 | 39.4 | 30.3 | > 100 | 16.2 | 37 | 60.8 | > 100 | 27.8 | 99.4 | 16 | 37.7
O=C(O)CCN1C(=O)/C(=C/C(Cl)=C/c2ccccc2)SC1=S | 2.6 | 9.59 | 1.71 | 6.52 | 3.38 | 11 | 1.98 | 13.1 | 2.87 | 11.4 | 3.23 | 10.5
